Results published in US20250333397A1 (REMIX THERAPEUTICS INC., priority 2021, published 2025).
Read-outs that look alike come from different tables or passages of the source.

Columns and labels:
Format in all cases: cell-based, human
SMN2 mRNA = test: RT-qPCR splicing assay panel, SMN2 canonical junction (CJ) mRNA; conditions: canonical junction (CJ) mRNA, RT-qPCR panel, Table 4A, read-out: SMN2, decrease in CJ mRNA levels, IC50
How it was run: (§1)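 Junction-specific RT-qPCR read the canonical exon-exon junction and the compound-induced alternative-exon junction, normalized to GAPDH, GUSB or PPIA and then to DMSO (2^(-ΔΔCt)). Input was lysate from A673 or K562 cells exposed for 24 h to compound up to 10 uM.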

Target C mRNA = test: RT-qPCR splicing assay panel, Target C canonical junction (CJ) mRNA; conditions: canonical junction (CJ) mRNA, RT-qPCR panel, Table 4A, read-out: Target C, decrease in CJ mRNA levels, IC50
How it was run: as §1

HTT mRNA = test: RT-qPCR splicing assay, HTT canonical (CJ) and alternative (AJ) junction mRNA; conditions: for AC50: read-out: HTT AJ (AC50, increase in AJ mRNA)
How it was run: as §1

MYB mRNA = test: RT-qPCR splicing assay, MYB canonical (CJ) and alternative (AJ) junction mRNA; conditions: for AC50: read-out: MYB AJ (AC50, increase in AJ mRNA)
How it was run: as §1

[1] = Homo sapiens, 24 h, Table 3A, A673 or K562 cells, 24 h treatment
[2] = Homo sapiens, 24 h, Table 3A, A673 or K562 cells, 24 h treatment, read-out: HTT CJ (IC50, decrease in CJ mRNA)
[3] = Homo sapiens, canonical junction (CJ) mRNA, RT-qPCR panel, Table 4A, read-out: HTT, decrease in CJ mRNA levels, IC50
[4] = Homo sapiens, 24 h, Table 3A, A673 or K562 cells, 24 h treatment, read-out: MYB CJ (IC50, decrease in CJ mRNA)
[5] = Homo sapiens, canonical junction (CJ) mRNA, RT-qPCR panel, Table 4A, read-out: MYB, decrease in CJ mRNA levels, IC50
[6] = Table 3A, A673 or K562 cells, 24 h treatment

IC50 (SMN2 mRNA; Homo sapiens)	IC50 (Target C mRNA; Homo sapiens)	IC50 (HTT mRNA; [2])	IC50 (HTT mRNA; [3])	IC50 (MYB mRNA; [4])	IC50 (MYB mRNA; [5])	IC50 (SMN2 mRNA)	IC50 (Target C mRNA)	IC50 (HTT mRNA; Table 3A, A673 or K562 cells, 24 h treatment, read-out: HTT CJ (IC50, decrease in CJ mRNA))	IC50 (HTT mRNA; canonical junction (CJ) mRNA, RT-qPCR panel, Table 4A, read-out: HTT, decrease in CJ mRNA levels, IC50)	IC50 (MYB mRNA; Table 3A, A673 or K562 cells, 24 h treatment, read-out: MYB CJ (IC50, decrease in CJ mRNA))	IC50 (MYB mRNA; canonical junction (CJ) mRNA, RT-qPCR panel, Table 4A, read-out: MYB, decrease in CJ mRNA levels, IC50)	SMILES	AC50 (HTT mRNA; [1])	AC50 (MYB mRNA; [1])	AC50 (HTT mRNA; [6])	AC50 (MYB mRNA; [6])
< 100 nM	100 to 1000 nM	< 100 nM	< 100 nM	100 to 1000 nM	100 to 1000 nM							COc1cc(-c2ccc(-c3ccc(N4CC[C@@H](CNC5CCC5)C4)nn3)c(O)c2)cnn1 [Compound 440, 2-{6-[(3S)-3-[(cyclobutylamino)methyl]pyrrolidin-1-yl]pyridazin-3-yl}-5-(6-methoxypyridazin-4-yl)phenol]	100 to 1000 nM	100 to 1000 nM		
1000 to 10000 nM	> 10000 nM	> 10000 nM	> 10000 nM	> 10000 nM	> 10000 nM							CCc1ncc(-c2cc(O)c(-c3ccc(N4CCC(NC5CCC5)C4)nn3)cc2F)s1 (stereo not shown) [Compound 442]	1000 to 10000 nM	> 10000 nM		
1000 to 10000 nM	> 10000 nM	> 10000 nM	> 10000 nM	> 10000 nM	> 10000 nM							Oc1cc(-c2cnc(C3CC3)s2)c(F)cc1-c1ccc(N2CCC(NC3CCC3)C2)nn1 (stereo not shown) [Compound 444]	> 10000 nM	> 10000 nM		
< 100 nM	100 to 1000 nM	< 100 nM	< 100 nM	100 to 1000 nM	100 to 1000 nM							COc1cc(-c2ccc(-c3ccc(N4CCC(N[C@H]5C[C@H](O)C5)C4)nn3)c(O)c2)cnn1 (stereo partly shown) [Compound 447]	< 100 nM	100 to 1000 nM		
< 100 nM	100 to 1000 nM	100 to 1000 nM	100 to 1000 nM	100 to 1000 nM	100 to 1000 nM							COc1cc(-c2ccc(-c3ccc(N4CCC(N[C@H]5C[C@H](OC)C5)C4)nn3)c(O)c2)cnn1 (stereo partly shown) [Compound 448]	100 to 1000 nM	100 to 1000 nM		
< 100 nM	100 to 1000 nM	< 100 nM	< 100 nM	100 to 1000 nM	100 to 1000 nM							COc1cc(-c2cc(O)c(-c3ccc(N4CC[C@@](C)(NCC5CC5)C4)nn3)cc2F)cnn1 [Compound 451, 2-{6-[(3R)-3-[(cyclopropylmethyl)amino]-3-methylpyrrolidin-1-yl]pyridazin-3-yl}-4-fluoro-5-(6-methoxypyridazin-4-yl)phenol]	100 to 1000 nM	100 to 1000 nM		

Second part, the compound before the results:

SMILES	IC50 (SMN2 mRNA; Homo sapiens)	IC50 (Target C mRNA; Homo sapiens)	IC50 (HTT mRNA; [2])	IC50 (HTT mRNA; [3])	IC50 (MYB mRNA; [4])	IC50 (MYB mRNA; [5])	IC50 (SMN2 mRNA)	IC50 (Target C mRNA)	IC50 (HTT mRNA; Table 3A, A673 or K562 cells, 24 h treatment, read-out: HTT CJ (IC50, decrease in CJ mRNA))	IC50 (HTT mRNA; canonical junction (CJ) mRNA, RT-qPCR panel, Table 4A, read-out: HTT, decrease in CJ mRNA levels, IC50)	IC50 (MYB mRNA; Table 3A, A673 or K562 cells, 24 h treatment, read-out: MYB CJ (IC50, decrease in CJ mRNA))	IC50 (MYB mRNA; canonical junction (CJ) mRNA, RT-qPCR panel, Table 4A, read-out: MYB, decrease in CJ mRNA levels, IC50)	AC50 (HTT mRNA; [1])	AC50 (MYB mRNA; [1])	AC50 (HTT mRNA; [6])	AC50 (MYB mRNA; [6])
Oc1cc(-c2cnn3c2CCC3)c(F)cc1-c1ccc(N2CCC(NC3CCC3)C2)nn1 (stereo not shown) [Compound 443]	1000 to 10000 nM	> 10000 nM	1000 to 10000 nM	1000 to 10000 nM	> 10000 nM	> 10000 nM							1000 to 10000 nM	> 10000 nM		
CC(=O)c1cc(-c2ccc(-c3ccc(N4CCC(NC5CCC5)C4)nn3)c(O)c2)cnn1 (stereo not shown) [Compound 445]	> 10000 nM	> 10000 nM	> 10000 nM	> 10000 nM	> 10000 nM	> 10000 nM							> 10000 nM	> 10000 nM		
CN([C@@H]1CCN(c2ccc(-c3ccc(-c4cn[nH]c4)cc3O)nn2)C1)C(C)(C)C [Compound 446]							< 100 nM	< 100 nM	< 100 nM	< 100 nM	< 100 nM	< 100 nM			< 100 nM	< 100 nM
COc1cc(-c2ccc(-c3cc(C)c(N4CC[C@H](NC5CCC5)C4)nn3)c(O)c2)cnn1 [Compound 449, 2-{6-[(3S)-3-(cyclobutylamino)pyrrolidin-1-yl]-5-methylpyridazin-3-yl}-5-(6-methoxypyridazin-4-yl)phenol]	< 100 nM	1000 to 10000 nM	100 to 1000 nM	100 to 1000 nM	100 to 1000 nM	100 to 1000 nM							100 to 1000 nM	100 to 1000 nM		
COc1cc(-c2ccc(-c3nnc(N4CC[C@H](NC5CCC5)C4)cc3C)c(O)c2)cnn1 [Compound 450, (S)-2-(6-(3-(cyclobutylamino)pyrrolidin-1-yl)-4-methylpyridazin-3-yl)-5-(6-methoxypyridazin-4-yl)phenol]	1000 to 10000 nM	1000 to 10000 nM	1000 to 10000 nM	1000 to 10000 nM	1000 to 10000 nM	1000 to 10000 nM							1000 to 10000 nM	1000 to 10000 nM		
